The test has as its system CEM cells HIV-1 protection, formazan growth assay. The test can be described thus: NCI AIDS Antiviral Assay. As to conditions: for IC50: measured here: growth of uninfected CEM cells. A digest of the protocol: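 Protection of CEM cells against HIV-1 was scored from cell growth (soluble formazan) across five concentrations, with parallel uninfected cells. Lack of protection may reflect toxicity.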

Active and inactive are the calls of the source.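 The calls were made as follows: active = compounds giving half or more protection of infected cells from virus-caused growth loss, again on retest; inactive = the rest.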 *1 amine or outer side, *2 acyl side, *3 side chain or, on linkers, in order; H or OH if unused. Where a SMILES comes first, the peptide text is derived from it. [ ]: non-standard residue; d: D form. The star is where a group is joined. X3 = CC(=O)N(C)SCC(N[*:1])C(=O)[*:2]; Fmoc = O=C(OCC1c2ccccc2-c2ccccc21)*; Cbz = O=C(OCc1ccccc1)*; OBn = c1ccc(CO*)cc1; For = O=C* Some results are limits rather than exact numbers.

The term EC50 denotes the concentration needed to bring the measured effect to its halfway point. As usually defined, the IC50 is the concentration at which inhibition is half-maximal. Lower therefore signals higher potency. Take `CCOC(=O)C(C)P(=O)(OC)OC` (stereo not given): the EC50 was more than 200 µM and the half-maximal inhibitory concentration (IC50) is more than 200 µM. As to `CC(C)C(NC(=O)OC(C)(C)C)C(=O)N1CC[C@@H](O)[C@H]1C(O)CC(=O)OC(C)(C)C` (stereo not given in full), the EC50 is more than 200 µM and the IC50 is more than 200 µM.

As to `CCOC(=O)[C@@]1(C)CC(O)C(=O)N1C` (stereo not given in full), the outcome was inactive. `COc1ccc2c(c1OC)C(=O)O[C@@H]2C1c2cc3c(cc2CCN1C)OCO3` (stereo not given in full): the EC50 was more than 245 µM and the half-inhibitory concentration (IC50) was more than 245 µM. Turning to `CCCCCCCCCOC(=S)NCCCCC`, the result was inactive. Turning to `N=C(N)n1ncc(Cl)c(Cl)c1=O`, the EC50 was more than 91.2 µM and the IC50 amounted to 0.407 µM.

Turning to `O=C1c2cccc3cc([N+](=O)[O-])cc(c23)C(=O)N1C(Cc1ccccc1)c1ccccc1` (stereo not given), the EC50 was more than 200 µM and the half-maximal inhibitory concentration (IC50) stood at 105 µM. On to `O=c1cc(NNc2cccc(Cl)c2)[nH]c(=O)[nH]1`, for which the EC50 was more than 200 µM and the IC50 stood at 1.05 µM. For `CCCCCCCCCCCCCCCCOCC(CCl)OP(=O)(O)OP(=O)(O)OCC1OC(n2ccc(N)nc2=O)C(O)C1O` (stereo not given), in that order: more than 200 µM and 170 µM.

For the compound `O=C1c2ccccc2C(=O)C12CCc1ccccc12`, the result was inactive.

In the case of `Fc1cccc(F)c1C1SCc2nc3cc(Cl)c(Cl)cc3n21` (stereo not given), the EC50 is 120 µM and the IC50 was determined as 195 µM. In the case of `N#CC(C#N)=Cc1cccc(C#N)c1`, the EC50 is more than 141 µM and the IC50 came out at 2.45 µM. The like results for `Cc1c2c(nc3ccccc13)C(=O)c1cccnc1C2=O` were, in that order, more than 100 µM and 13.5 µM. Take `O=C(CBr)Nc1ccccc1-c1ccccc1NC(=O)CBr`: the outcome was inactive. As for `CC(C)(C)[Si](C)(C)OC1/C(=C/C#N)C(n2ccc(=O)[nH]c2=O)OC1CO` (stereo not given), the EC50 was more than 200 µM and the IC50 is more than 200 µM. In the case of `N#CCCN(CCN(C(=O)Nc1ccccc1)c1ccccc1)C(=O)Nc1ccccc1`, the EC50 is more than 200 µM and the half-inhibitory concentration (IC50) worked out at 55 µM. For `COc1cc(/C=C2/SC(c3ccccc3)N(c3cc(Cl)ccc3Cl)C2=O)cc(OC)c1OC` (stereo not given), in that order: more than 200 µM and 70.8 µM. For `COc1cc(C2c3cc4c(cc3OC(N3CCCCC3)C2C)OCO4)cc(OC)c1O` (stereo not given), in that order: more than 200 µM and 7.59 µM.

For the compound `CC1=Nc2ccccc2NC(=O)C1`, the EC50 was more than 200 µM and the IC50 is more than 200 µM. With `Cc1c(COC(=O)NC(C)C)c(COC(=O)NC(C)C)c2n1CS(=O)(=O)C2`, the EC50 was more than 200 µM and the IC50 was more than 200 µM. Turning to `COc1ccccc1C1C(C#N)C(=O)NC(=O)C1C#N` (stereo not given), the EC50 was more than 200 µM and the IC50 is more than 200 µM. Turning to `c1ccc(P(CC[As](c2ccccc2)c2ccccc2)CC[As](c2ccccc2)c2ccccc2)cc1`, the EC50 is more than 20.9 µM and the IC50 stood at 2.14 µM. Regarding `CCOC(=O)C1(C(=O)OCC)CCCN1C(=O)[C@H](CNC(=O)OC(C)(C)C)NC(=O)OCc1ccccc1`, the result was inactive. With `O=c1c(O)c(-c2ccc(O)c(O)c2)oc2cc(O)cc(O)c12.[Zr]`, the EC50 is more than 200 µM and the IC50 was more than 200 µM. For the compound `CSc1c(C(=O)Nc2ccc(C)cc2)c(N)[nH]c(=O)c1C#N`, the half-maximal effective concentration (EC50) is more than 95.5 µM and the IC50 was 75.9 µM. For `O=C(/C=C/c1ccc(O)cc1)c1ccc2c(c1)OCO2`, in that order: more than 200 µM and 33.1 µM.

Consider `Cn1c(COc2ccc(/C=N/NC(=O)CCC(=O)N/N=C/c3ccc(OCc4c[n+]5ccccc5n4C)cc3)cc2)c[n+]2ccccc12`, for which the 50% effective concentration (EC50) was 13.5 µM and the IC50 was determined as 19.1 µM. With `O=C1C2C(C(=O)N1O)N(Cc1ccccc1)C(=O)N2Cc1ccccc1` (stereo not given), the EC50 was more than 708 µM and the IC50 was more than 708 µM. As to `O=C1c2cccnc2S(=O)N1Cc1ccccc1` (stereo not given), the concentration giving a half-maximal response (EC50) was 105 µM and the 50% inhibitory concentration (IC50) is more than 200 µM. For `COc1ccc(C(O)/C(=N\NC(N)=S)c2nc3ccc([N+](=O)[O-])cc3[nH]c2=O)cc1OC` (stereo not given), in that order: more than 288 µM and more than 288 µM. Regarding `O=Nc1ccc(O)cc1`, the EC50 was more than 20 µM and the IC50 amounted to 3.89 µM.

`O=C1CCC(C(=O)O)C2=C1CCCC2` (stereo not given): the result was inactive.

Take `Cn1c(-c2ccc(-c3cc(-c4cccs4)c(-c4cccs4)n3C)cc2)cc(-c2cccs2)c1-c1cccs1`: the EC50 was more than 200 µM and the IC50 was more than 200 µM. On to `Cc1[nH]c2[nH]c(=S)nc(NC(N)=S)c2c1Cc1ccccc1`, for which the EC50 was more than 100 µM and the IC50 is 41.7 µM. The like results for `CC(=O)OCC(C)(COC(C)=O)N1C(=O)C2C3c4ccccc4C(c4ccccc43)C2C1=O` (stereo not given) were, in that order, more than 200 µM and more than 200 µM. For `COC(=O)C(Cc1ccc(O)cc1)NC(=O)C(CC(=O)OCc1ccccc1)NC(=O)OCc1ccccc1` (stereo not given) (Cbz-Asp(OBn)-Tyr-OMe; configuration not given here), in that order: more than 200 µM and 30.9 µM. The like results for `CC(C)C1COC(C(C)(C)C2=N[C@@H](C(C)C)CO2)=N1` (stereo not given in full) were, in that order, more than 251 µM and 135 µM. Regarding `C[S+](C)C1(c2ccccc2)C(=O)c2ccccc2C1=O`, the EC50 is more than 575 µM and the half-maximal inhibitory concentration (IC50) is more than 575 µM. Consider `O=C(O)CCN1CCN(CCC(=O)O)CCN(CCC(=O)O)CC1`, for which the EC50 was more than 200 µM and the concentration for half-maximal inhibition (IC50) is 18.2 µM.

Turning to `Cc1ccc2c(c1)C(O)(c1ccccc1)C(c1ccccc1)C(c1ccccc1)O2` (stereo not given), the EC50 is more than 200 µM and the IC50 is 6.92 µM. In the case of `COc1cc(Cc2nnc(SC)nc2C)cc(OC)c1OC`, the EC50 was 10 µM and the half-inhibitory concentration (IC50) was found to be 22.4 µM. For `CC(=O)OC[C@]12CCC3[C@@]4(C)CCCC(C)(C)C4CC[C@@]3(C)C1CC(C1=CC(=O)OC1O)O2` (stereo not given in full), in that order: more than 200 µM and 0.759 µM.

For the compound `O=C(Nc1ccc(C2=NCCN2)cc1)c1cccc(NC(=S)Nc2ccc(C3=NCCN3)cc2)c1`, the EC50 was 33.1 µM and the IC50 came out at 112 µM. In the case of `N#CC(C#N)=CNC(=S)Nc1ccc(Cl)c(Cl)c1`, the EC50 was more than 200 µM and the IC50 stood at 15.1 µM. For `COc1ccc2c(c1)Oc1cc(O)ccc1[C@@H]2c1ccccc1C(=O)NC(C)c1ccccc1` (stereo not given in full), in that order: more than 15.8 µM and 14.5 µM. For `Cc1ccc2c(c1)c1ccc3c(c1n2C)C(=O)C=CC3=O`, in that order: more than 100 µM and 2.45 µM. The like results for `N#CCCC/C(=N\O)C(=O)OCc1ccccc1` were, in that order, more than 200 µM and more than 200 µM.

Turning to `CC(=O)N(C)SCC(NC(=O)C(Cc1ccccc1)NC(=O)OCC1c2ccccc2-c2ccccc21)C(=O)NC(Cc1ccccc1)C(=O)NC(Cc1cn(C=O)c2ccccc12)C(=O)NC(CCCCNC(=O)OCC1c2ccccc2-c2ccccc21)C(=O)NC(C(=O)NC(CSN(C)C(C)=O)C(=O)NC(C(N)=O)C(C)O)C(C)O` (stereo not given) (Fmoc-F[X3]FW(For)K(Fmoc)T[X3]T-NH2; configuration not given here), the EC50 is more than 100 µM and the IC50 came out at 79.4 µM. For `N#CCCC(C#N)(C#N)CCC#N`, in that order: more than 759 µM and more than 759 µM. For `NC(CCC(=O)O)(C(=O)O)c1ccccc1` (stereo not given), in that order: more than 200 µM and more than 200 µM. The like results for `CCCCCCCCCCCCCCOP(=O)(O)OCCC=C(c1cc(Cl)c(O)c(C(=O)O)c1)c1cc(Cl)c(O)c(C(=O)O)c1` were, in that order, more than 200 µM and more than 100 µM. `Cn1cnc([N+](=O)[O-])c1Sc1ncccn1`: the EC50 is more than 1050 µM and the IC50 came to 38 µM. The like results for `CCS(=O)(=O)[C@@]1(C#N)CC[C@]1(C#N)S(=O)(=O)CC` were, in that order, 646 µM and 871 µM.

For the compound `CC1ON2CCCC2[C@H]1C(=O)N1C2CC3CCC2(CS1(=O)=O)C3(C)C` (stereo not given in full), the EC50 was more than 200 µM and the IC50 was more than 200 µM. Turning to `COc1ccc(NC(=S)N/N=C/c2ccccn2)cc1`, the EC50 was more than 2 µM and the IC50 came to 0.316 µM. The like results for `CC(CO)[C@H]1OC(=O)C=C2[C@@]13O[C@@H]3[C@H]1OC(=O)[C@@]3(C)[C@H]4O[C@H]4C[C@@]2(C)[C@@H]13` (stereo not given in full) were, in that order, more than 2 µM and 0.776 µM. The like results for `CC(C)OP(=O)(OC(C)C)C(N(C)C)P(=O)(OC(C)C)OC(C)C.[CH3][Sn]([CH3])([Cl])[Cl]` were, in that order, more than 302 µM and 17.4 µM.

As for `COC(=O)c1ccccc1C1CN=NC12Cc1cccc(C)c1C2=O` (stereo not given), the EC50 was more than 200 µM and the IC50 came to 57.5 µM.

In the case of `CC1=C2C(=O)NN=C2CCN1c1ccc(Br)cc1`, the EC50 is more than 200 µM and the half-maximal inhibitory concentration (IC50) turned out to be 34.7 µM.

For the compound `CCOc1ccc(/C=C2/NC(=S)N(CN3CCCCC3)C2=O)cc1`, the EC50 is more than 200 µM and the concentration for half-maximal inhibition (IC50) came out at 72.4 µM. For `Cn1c(=O)c2[nH]c(N=O)nc2n(C)c1=O`, in that order: more than 200 µM and more than 200 µM. For `C[C@@H]1C[C@H](O)[C@]2(O)O[C@@H]3C[C@@]4(C=O)[C@@H](CC=C5[C@@H]4CC[C@]4(C)[C@@H](C6=CC(=O)OC6)CC[C@]54O)C[C@H]3O[C@@H]2O1`, in that order: more than 0.1 µM and 0.0138 µM.

Consider `COC12C=CC(CC1)C(C)(C)C2OS(C)(=O)=O` (stereo not given), for which the result was inactive.

Take `Cn1cnc([N+](=O)[O-])c1Sc1n[nH]c(-c2ccc(Cl)cc2)n1`: the EC50 was more than 107 µM and the IC50 was determined as 6.76 µM.

On to `CCC[N+]12CC=C(CO)C1C(O)CC2` (stereo not given), for which the EC50 was more than 891 µM and the IC50 is more than 891 µM. Turning to `O=C1NCC2=C1CCC1c3ccccc3CCN21` (stereo not given), the EC50 is more than 200 µM and the half-inhibitory concentration (IC50) is more than 200 µM. Take `CC1=NC(=O)CNN1C1=NNC2(C(=O)N1)c1ccccc1-c1ccccc12`: the EC50 was more than 100 µM and the 50% inhibitory concentration (IC50) was more than 100 µM. Consider `OC1=CN=COc2ccccc21`, for which the EC50 was more than 813 µM and the IC50 was determined as 479 µM.

Turning to `Brc1ccc2c(c1)C1=C(CO2)Cc2ccccc2O1`, the result was inactive.

These data come from PubChem BioAssay AID179 (DTP/NCI, 2004).
